Laboratory results reported in ChEMBL document CHEMBL1201862, “PubChem BioAssay data set” (2004).
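Five concentrations, 48 hours, 96-well plates. The concentration for 50% growth inhibition is given as GI50.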 Activity calls are given as the source filed them. Rule as the data show it: active = GI50 up to about 1.1 µM and inactive = higher.

How the values were obtained:
Assay in all cases: growth of human tumour cells (NCI), 48 h
BT-549 = system: BT-549
CAKI-1 = system: CAKI-1
COLO 205 = system: COLO 205
DU-145 = system: DU-145
EKVX = system: EKVX
HCC 2998 = system: HCC 2998
HL-60 = system: HL-60
HOP-62 = system: HOP-62
Hs-578T = system: Hs-578T
KM12 = system: KM12
LOX IMVI = system: LOX IMVI
MDA-MB-435 = system: MDA-MB-435
NCI-H226 = system: NCI-H226
OVCAR-8 = system: OVCAR-8
PC-3 = system: PC-3
SF-295 = system: SF-295
SF-539 = system: SF-539
SK-OV-3 = system: SK-OV-3
SW-620 = system: SW-620
U-251 = system: U-251

Measured: GI50

COC(=O)/C=C/c1ccc2c(c1)[C@H](C(=O)OC)[C@@H](c1ccc(O)cc1)O2
inactive: BT-549 16.8 µM | CAKI-1 45.3 µM | COLO 205 25.2 µM | DU-145 71.3 µM | EKVX 40 µM | HCC 2998 10.9 µM | HL-60 6.27 µM | HOP-62 35.8 µM | Hs-578T 31.2 µM | KM12 19 µM | LOX IMVI 18 µM | MDA-MB-435 3.32 µM | NCI-H226 55.8 µM | OVCAR-8 37 µM | PC-3 23.3 µM | SF-295 31.4 µM | SF-539 44.7 µM | SK-OV-3 69 µM | SW-620 6.08 µM | U-251 21.9 µM

CSc1nc(NC2OC(COC(C)=O)C(OC(C)=O)C(OC(C)=O)C2OC(C)=O)c(/N=C\C=N/c2c(NC3OC(COC(C)=O)C(OC(C)=O)C(OC(C)=O)C3OC(C)=O)nc(SC)n(C)c2=O)c(=O)n1C (stereo not given)
inactive: BT-549 > 65.6 µM | CAKI-1 > 7.23 µM | COLO 205 > 100 µM | DU-145 > 100 µM | EKVX > 100 µM | HCC 2998 > 100 µM | HL-60 > 100 µM | HOP-62 4.32 µM | Hs-578T 26.1 µM | KM12 > 100 µM | LOX IMVI > 95.3 µM | MDA-MB-435 > 100 µM | NCI-H226 54.1 µM | OVCAR-8 73.8 µM | PC-3 > 100 µM | SF-295 33.3 µM | SF-539 38 µM | SK-OV-3 36.1 µM | SW-620 > 100 µM | U-251 41.2 µM
